Broadly, the IC50 is the concentration that inhibits the measured activity by half.

One experiment deals with MV-4-11 cells. The experiment is described as follows: Cell Viability Assay in MV-4-11 Cells. The experiment is classed as cell-based. The following applies: Homo sapiens, MV4-11, 72 h. The essentials: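 Luminescent ATP read-out (CellTiter-Glo) after 72 h compound treatment of MV-4-11 leukaemia cells (7,000 per well, IMDM plus 10% FBS). Values expressed relative to DMSO control and derived by four-parameter non-linear regression.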
Regarding `Cn1cc(-c2ccc(C(=O)N(c3nccc4sc(-c5cccc(C(=O)Nc6ccccc6)c5)cc34)[C@@H]3CCCNC3)c(F)c2)nn1` [Example 540, 2-fluoro-4-(1-methyltriazol-4-yl)-N-[2-[3-(phenylcarbamoyl)phenyl]thieno[3,2-c]pyridin-4-yl]-N-[(3R)-3-piperidyl]benzamide], 470 nM corresponded to half-maximal inhibition (IC50).
Still for that read-out and setting: under `CNC(=S)Nc1ccc(-c2cc3c(N(C(=O)c4ccc(-c5cn(C)nn5)cc4F)[C@@H]4CCCNC4)nccc3s2)cc1` [Example 548, (R)-2-fluoro-4-(1-methyl-1H-1,2,3-triazol-4-yl)-N-(2-(4-(3-methylthioureido)phenyl)thieno[3,2-c]pyridin-4-yl)-N-(piperidin-3-yl)benzamide] stands 240 nM.

Staying with this experiment, now noted: Homo sapiens, MV4-11, 72 h, MV-4-11 cells, 72 h, Cell-Titer Glo; read-out: IC50.
Turning to `Cn1cc(-c2ccc(C(=O)N(c3nccc4sc(-c5ccc(C(=O)Nc6ccccc6)cc5)cc34)[C@@H]3CCCNC3)c(F)c2)nn1` [Example 523, 2-fluoro-4-(1-methyltriazol-4-yl)-N-[2-[4-(phenylcarbamoyl)phenyl]thieno[3,2-c]pyridin-4-yl]-N-[(3R)-3-piperidyl]benzamide], the IC50 worked out at 920 nM.
The same measure, in the same setting: then `Cn1cc(-c2ccc(C(=O)N(c3nccc4sc(-c5ccc(C(=O)NCCO)cc5)cc34)[C@@H]3CCCNC3)c(F)c2)nn1` [Example 524], with more than 10000 nM.
Still for that read-out and setting: then `CNC(=O)/C=C/c1cc2c(N(C(=O)c3ccc(-n4nnc5cccnc54)cc3F)[C@@H]3CCCNC3)nccc2s1` [Example 525, 2-fluoro-N-[2-[(E)-3-(methylamino)-3-oxo-prop-1-enyl]thieno[3,2-c]pyridin-4-yl]-N-[(3R)-3-piperidyl]-4-(triazolo[4,5-b]pyridin-3-yl)benzamide], with 790 nM; and `CN(C)C(=O)/C=C/c1cc2c(N(C(=O)c3ccc(-n4nnc5cccnc54)cc3F)[C@@H]3CCCNC3)nccc2s1` [Example 526, N-[2-[(E)-3-(dimethylamino)-3-oxo-prop-1-enyl]thieno[3,2-c]pyridin-4-yl]-2-fluoro-N-[(3R)-3-piperidyl]-4-(triazolo[4,5-b]pyridin-3-yl)benzamide], with 870 nM.
On the same count and under the same terms, then `CNC(=O)c1nc(-c2cc3c(N(C(=O)c4ccc(-n5nnc6cccnc65)cc4F)[C@@H]4CCCNC4)nccc3s2)cs1` [Example 527, 4-[4-[[2-fluoro-4-(triazolo[4,5-b]pyridin-3-yl)benzoyl]-[(3R)-3-piperidyl]amino]thieno[3,2-c]pyridin-2-yl]-N-methyl-thiazole-2-carboxamide], with 200 nM.
As for `CN(C)C(=O)c1ccc(-c2cc3c(N(C(=O)c4ccc(-c5cn(C)nn5)cc4F)[C@@H]4CCCNC4)nccc3s2)cc1` [Example 528, (R)—N-(2-(4-(dimethylcarbamoyl)phenyl)thieno[3,2-c]pyridin-4-yl)-2-fluoro-4-(1-methyl-1H-1,2,3-triazol-4-yl)-N-(piperidin-3-yl)benzamide], the half-inhibitory concentration (IC50) stood at 870 nM.
On the same count and under the same terms, then `Cn1cc(-c2ccc(C(=O)N(c3nccc4sc(-c5ccc(-c6cc[nH]n6)cc5)cc34)[C@@H]3CCCNC3)c(F)c2)nn1` [Example 529, 2-fluoro-4-(1-methyltriazol-4-yl)-N-[(3R)-3-piperidyl]-N-[2-[4-(1H-pyrazol-3-yl)phenyl]thieno [3,2-c]pyridin-4-yl] benzamide], with 140 nM; and `O=C(c1ccc(-n2nnc3cccnc32)cc1F)N(c1nccc2cc(-c3nn[nH]c3CO)ccc12)[C@@H]1CCCNC1` [Example 530, (R)-4-(3H-[1,2,3]triazolo[4,5-b]pyridin-3-yl)-2-fluoro-N-(6-(5-(hydroxymethyl)-1H-1,2,3-triazol-4-yl)isoquinolin-1-yl)-N-(piperidin-3-yl)benzamide], with 1600 nM.
Same read-out and setting: under `CNc1nccc(-c2cc3c(N(C(=O)c4ccc(-c5cn(C)nn5)cc4F)[C@@H]4CCCNC4)nccc3s2)n1` [Example 531, (R)-2-fluoro-4-(1-methyl-1H-1,2,3-triazol-4-yl)-N-(2-(2-(methylamino)pyrimidin-4-yl)thieno[3,2-c]pyridin-4-yl)-N-(piperidin-3-yl)benzamide] stands 430 nM.
In the case of `C=CC(=O)Nc1cccc(-c2cc3c(N(C(=O)c4ccc(-c5cn(C)nn5)cc4F)[C@@H]4CCCNC4)nccc3s2)c1` [Example 532, 2-fluoro-4-(1-methyltriazol-4-yl)-N-[(3R)-3-piperidyl]-N-[2-[3-(prop-2-enoylamino)phenyl]thieno[3,2-c]pyridin-4-yl]benzamide], the 50% inhibitory concentration (IC50) was determined as 1800 nM.
Turning to `Cn1cc(-c2ccc(C(=O)N(c3nccc4sc(-c5ccc6c(c5)C(=O)NC6)cc34)[C@@H]3CCCNC3)c(F)c2)nn1` [Example 533, 2-fluoro-4-(1-methyltriazol-4-yl)-N-[2-(3-oxoisoindolin-5-yl)thieno[3,2-c]pyridin-4-yl]-N-[(3R)-3-piperidyl]benzamide], the IC50 was determined as 910 nM.
The same measure, in the same setting: under `CNS(=O)(=O)c1ccc(-c2cc3c(N(C(=O)c4ccc(-c5cn(C)nn5)cc4F)[C@@H]4CCCNC4)nccc3s2)cc1` [Example 534, (R)-2-fluoro-4-(1-methyl-1H-1,2,3-triazol-4-yl)-N-(2-(4-(N-methylsulfamoyl)phenyl)thieno[3,2-c]pyridin-4-yl)-N-(piperidin-3-yl)benzamide] stands 200 nM; under `CNS(=O)(=O)c1cccc(-c2cc3c(N(C(=O)c4ccc(-c5cn(C)nn5)cc4F)[C@@H]4CCCNC4)nccc3s2)c1` [Example 535, 2-fluoro-N-[2-[3-(methylsulfamoyl)phenyl]thieno[3,2-c]pyridin-4-yl]-4-(1-methyltriazol-4-yl)-N-[(3R)-3-piperidyl]benzamide], 1200 nM; under `Cn1cc(-c2ccc(C(=O)N(c3nccc4sc(-c5ccc(S(=O)(=O)NCCN)cc5)cc34)[C@@H]3CCCNC3)c(F)c2)nn1` [Example 536, N-[2-[4-(2-aminoethylsulfamoyl)phenyl]thieno[3,2-c]pyridin-4-yl]-2-fluoro-4-(1-methyltriazol-4-yl)-N-[(3R)-3-piperidyl] benzamide], more than 10000 nM.
With `CC(C)NS(=O)(=O)c1ccc(-c2cc3c(N(C(=O)c4ccc(-c5cn(C)nn5)cc4F)[C@@H]4CCCNC4)nccc3s2)cc1` [Example 537, 2-fluoro-N-[2-[4-(isopropylsulfamoyl)phenyl]thieno[3,2-c]pyridin-4-yl]-4-(1-methyltriazol-4-yl)-N-[(3R)-3-piperidyl]benzamide], the IC50 is 1600 nM.
For `Cn1cc(-c2ccc(C(=O)N(c3nccc4sc(-c5ccc6c(c5)CNC6=O)cc34)[C@@H]3CCCNC3)c(F)c2)nn1` [Example 538, 2-fluoro-4-(1-methyltriazol-4-yl)-N-[2-(1-oxoisoindolin-5-yl)thieno[3,2-c]pyridin-4-yl]-N-[(3R)-3-piperidyl]benzamide], the IC50 is 920 nM.
Still for that read-out and setting: then `CC(C)NC(=O)c1cccc(-c2cc3c(N(C(=O)c4ccc(-c5cn(C)nn5)cc4F)[C@@H]4CCCNC4)nccc3s2)c1` [Example 539, 2-fluoro-N-[2-[3-(isopropylcarbamoyl)phenyl]thieno[3,2-c]pyridin-4-yl]-4-(1-methyltriazol-4-yl)-N-[(3R)-3-piperidyl]benzamide], with 630 nM; and `Cn1cc(-c2ccc(C(=O)N(c3nccc4sc(-c5cccc(C(=O)NCCO)c5)cc34)[C@@H]3CCCNC3)c(F)c2)nn1` [Example 542, 2-fluoro-N-[2-[3-(2-hydroxyethylcarbamoyl)phenyl]thieno[3,2-c]pyridin-4-yl]-4-(1-methyltriazol-4-yl)-N-[(3R)-3-piperidyl]benzamide], with 6300 nM.
As for `Cn1cc(-c2ccc(C(=O)N(c3nccc4sc(-c5ccc6cc[nH]c6c5)cc34)[C@@H]3CCCNC3)c(F)c2)nn1` [Example 543, 2-fluoro-N-[2-(1H-indol-6-yl)thieno [3,2-c]pyridin-4-yl]-4-(1-methyltriazol-4-yl)-N-[(3R)-3-piperidyl] benzamide], the half-inhibitory concentration (IC50) amounted to 310 nM.
On the same count and under the same terms, under `Cn1cc(-c2ccc(C(=O)N(c3nccc4sc(-c5ccc6c(c5)NC(=O)C6)cc34)[C@@H]3CCCNC3)c(F)c2)nn1` [Example 544] stands 1800 nM; under `Cn1cc(-c2ccc(C(=O)N(c3nccc4sc(-c5ccc6[nH]c(=O)[nH]c6c5)cc34)[C@@H]3CCCNC3)c(F)c2)nn1` [Example 545], 5300 nM; under `Cn1cc(-c2ccc(C(=O)N(c3nccc4sc(-c5ccc6[nH]ccc6c5)cc34)[C@@H]3CCCNC3)c(F)c2)nn1` [Example 546, 2-fluoro-N-[2-(1H-indol-5-yl)thieno[3,2-c]pyridin-4-yl]-4-(1-methyltriazol-4-yl)-N-[(3R)-3-piperidyl]benzamide], 92 nM.
Same read-out and setting: then `CC(=O)Nc1ccc(-c2cc3c(N(C(=O)c4ccc(-c5cn(C)nn5)cc4F)[C@@H]4CCCNC4)nccc3s2)cc1` [Example 547, (R)—N-(2-(4-acetamidophenyl)thieno[3,2-c]pyridin-4-yl)-2-fluoro-4-(1-methyl-1H-1,2,3-triazol-4-yl)-N-(piperidin-3-yl)benzamide], with 480 nM; and `CNC(=O)C#Cc1cc2c(N(C(=O)c3ccc(-n4nnc5cccnc54)cc3F)[C@@H]3CCCNC3)nccc2s1` [Example 549, 2-fluoro-N-[2-[3-(methylamino)-3-oxo-prop-1-ynyl]thieno[3,2-c]pyridin-4-yl]-N-[(3R)-3-piperidyl]-4-(triazolo [4,5-b]pyridin-3-yl)benzamide], with 1500 nM; and `CNC(=O)C#Cc1cc2c(N(C(=O)c3ccc(-c4cn(C)nn4)cc3F)[C@@H]3CCCNC3)nccc2s1` [Example 550, 2-fluoro-N-[2-[3-(methylamino)-3-oxo-prop-1-ynyl]thieno[3,2-c]pyridin-4-yl]-4-(1-methyltriazol-4-yl)-N-[(3R)-3-piperidyl] benzamide], with more than 6000 nM.

Still in this experiment, the particulars now being: MV-4-11 cells, 72 h, Cell-Titer Glo; read-out: IC50.
With `CNC(=O)c1cccc(-c2cc3c(N(C(=O)c4ccc(-c5cn(C)nn5)cc4F)[C@@H]4CCCNC4)nccc3s2)c1` [Example 541, 2-fluoro-N-[2-[3-(methylcarbamoyl)phenyl]thieno[3,2-c]pyridin-4-yl]-4-(1-methyltriazol-4-yl)-N-[(3R)-3-piperidyl] benzamide], the 50% inhibitory concentration (IC50) was found to be 640 nM.

(Values after patent publication US20240400555A1 (Initial Therapeutics, Inc., priority 2023, published 2024).)
